IC50 data for 21 molecules are collected here from patent publication US20240066027A1 (DOMAIN THERAPEUTICS, priority 2020, published 2024).

Where a name gives a salt, the structure may show the parent alone. A value given as a limit tells only on which side of the number the result lay.

In this assay the target is T1, human PAR-2 (hPAR-2) receptor expressed in HEK-293 T cells in an endogenous manner (Homo sapiens, UniProt P55085).
T1 construct: human PAR-2 (hPAR-2) receptor expressed in HEK-293 T cells in an endogenous manner; endogenous in cells; host or cells: HEK-293 T cells
T1 sequence (P55085 26-397): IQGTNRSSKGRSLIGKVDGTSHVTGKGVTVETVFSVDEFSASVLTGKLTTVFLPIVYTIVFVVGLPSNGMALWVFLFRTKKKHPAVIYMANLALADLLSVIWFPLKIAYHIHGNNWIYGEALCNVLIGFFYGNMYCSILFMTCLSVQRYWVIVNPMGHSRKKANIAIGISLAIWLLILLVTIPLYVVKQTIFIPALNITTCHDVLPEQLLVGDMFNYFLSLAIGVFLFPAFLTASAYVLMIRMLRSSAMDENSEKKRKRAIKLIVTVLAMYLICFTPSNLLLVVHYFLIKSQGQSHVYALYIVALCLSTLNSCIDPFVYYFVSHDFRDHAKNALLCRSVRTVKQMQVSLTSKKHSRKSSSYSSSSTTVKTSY
In words: In vitro human PAR-2 functional antagonist activity using calcium assays (Fluo4AM, FLIPR Tetra). It is filed as cell-based. The conditions noted are these: HEK-293 T cells stimulated by an EC80 of the 2-Furoyl-LIGRLO-NH2 peptide after 10 min incubation with compound; 20 concentrations, duplicate, two independent experiments. The method, then:
In vitro human PAR-2 functional antagonist activity using calcium assays
Examples of the present invention were tested successively for their agonist and antagonist activities on human PAR-2 (hPAR-2) receptor expressed in HEK-293 T cells in an endogenous manner. Compounds exert agonist activity if, by themselves in absence of the 2-Furoyl-LIGRLO-NH2 peptide (selective hPAR-2 agonist), they activate PAR-2; they exert antagonist activity if they decrease the action of the 2-Furoyl-LIGRLO-NH2 peptide on the receptor. The assay used to determine compound activity is based on calcium measurement.
Cell Culture: HEK-293 T cells were maintained in Dulbecco's Modified Eagle's Medium supplemented with 10% Foetal Calf Serum, 1% Penicillin/Streptomycin at 37° C./5% CO2. Flasks for tests (F75) are seeded with 6e+06 cells 24 h before the experiment at 37° C./5% CO2.
Calcium assay: Receptor activity was detected by changes in intracellular calcium measured using the fluorescent Ca^2+ sensitive dye, Fluo4AM (Molecular Probes).
The day of the assay, medium was replaced by assay buffer (HBSS 1× (Gibco 14175-053), Hepes 20 mM, MgSO4-7H2O 1 mM, Na2CO3 3.3 mM, CaCl2-2H2O 1.3 mM, 0.5% BSA, Probenecid 2.5 mM, 0.1 mg/mL Pluronic Acid) and complemented with 1 μM Fluo4AM and cells were incubated during 1:30 h at 37° C.
Cells were then detached, resuspended in assay buffer and seeded in 384 wells, transparent-flat bottom black walled plates (2e+04 cells per well). Plates were incubated at +22° C. for 20 min. Compounds stock solutions were prepared in 100% DMSO and dilutions in test buffer were carried out in polypropylene plates with a digital dispenser (D300e, Tecan). Compounds were added to the cells and intracellular Ca^2+ measurements were collected at the same time on FLIPR Tetra® (Molecular Devices) with specific filters (Exc: 470-495 nm/Em: 515-575 nm).
Agonist and antagonist activities of compounds were consecutively evaluated on the same cell plate. Agonist activity was first measured after 10 min incubation with the compound alone. Then, cells were stimulated by an EC80 of the 2-Furoyl-LIGRLO-NH2 peptide and fluorescence was recorded for an additional 5 min. EC80 of the 2-Furoyl-LIGRLO-NH2 peptide was the concentration giving 80% of the maximal 2-Furoyl-LIGRLO-NH2 response. Agonist activities are evaluated in comparison to basal signals evoked by assay buffer or maximal 2-Furoyl-LIGRLO-NH2 response. […] Antagonist activities are evaluated in comparison to basal signals evoked by assay buffer or EC80 of 2-Furoyl-LIGRLO-NH2 alone.

Broadly, the IC50 is the concentration at which inhibition is half-maximal. Turning to `Cc1cc(N2CCN(C(=O)c3ccc4c(-c5ccc(F)c(F)c5)cn(C(C)(C)C)c4n3)C(C)(C)C2)nc(C)c1C(=O)O` [Example 191, 6-(4-(1-(tert-butyl)-3-(3,4-difluorophenyl)-1H-pyrrolo[2,3-b]pyridine-6-carbonyl)-3,3-dimethylpiperazin-1-yl)-2,4-dimethylnicotinic acid], the concentration for half-maximal inhibition (IC50) was less than 20 nM.
With `CN1CCN(C(=O)c2ccc3c(-c4ccc(Cl)c(F)c4)cn(C(C)(C)C)c3n2)CC1=O` [Example 20, 4-(1-(tertbutyl)-3-(4-chloro-3-fluorophenyl)-1H-pyrrolo[2,3-b]pyridine-6-carbonyl)-1-methylpiperazin-2-one] the figure was 20 to 10000 nM; with `CC(C)Cn1cc(-c2ccc(C#N)cc2)c2ccc(C(=O)N3CCNC(=O)C3(C)C)nc21` [Example 106, 4-(6-(2,2-dimethyl-3-oxopiperazine-1-carbonyl)-1-isobutyl-1H-pyrrolo[2,3-b]pyridin-3-yl)benzonitrile], 20 to 10000 nM; with `CC1(C)CN(C(=O)c2ccc3c(-c4ccc(Cl)c(F)c4)cn(C(C)(C)C)c3n2)CCC1C(N)=O` (stereo not drawn) [Example 23, 1-(1-(tert-butyl)-3-(4-chloro-3-fluorophenyl)-1H-pyrrolo[2,3-b]pyridine-6-carbonyl)-3,3-dimethylpiperidine-4-carboxamide], 20 to 10000 nM.
With `CC(C)(C)n1cc(-c2ccc(Cl)c(F)c2)c2ccc(C(=O)N3CC4(CCOC4)C3)nc21` [Example 9, (1-(tert-butyl)-3-(4-chloro-3-fluorophenyl)-1H-pyrrolo[2,3-b]pyridin-6-yl)(6-oxa-2-azaspiro[3.4]octan-2-yl)methanone] the figure was more than 10000 nM; with `CC(C)(C)n1cc(-c2ccc(Cl)c(F)c2)c2ccc(C(=O)N3CCN(c4cn[nH]c(=O)c4)CC3)nc21` [Example 208, 5-(4-(1-(tert-butyl)-3-(4-chloro-3-fluorophenyl)-1H-pyrrolo[2,3-b]pyridine-6-carbonyl)piperazin-1-yl)pyridazin-3(2H)-one], more than 10000 nM.
With `Cc1cc(N2CCN(C(=O)c3ccc4c(-c5ccc(Cl)c(F)c5)cn(C5CCOCC5)c4n3)C(C)(C)C2)nc(C)c1C(=O)O` [Example 98] the figure was less than 20 nM.
For the molecule `Cc1cc(N2CCN(C(=O)c3ccc4c(-c5ccc(Cl)c(F)c5)cn(C)c4n3)C(C)(C)C2)nc(C)c1C(=O)O` [Example 122, 6-(4-(3-(4-chloro-3-fluorophenyl)-1-methyl-1H-pyrrolo[2,3-b]pyridine-6-carbonyl)-3,3-dimethylpiperazin-1-yl)-2,4-dimethylnicotinic acid hydrochloride], the IC50 fell in the range of 20 to 10000 nM.
In the case of `Cc1cc(N2CCN(C(=O)c3ccc4c(-c5ccc(Cl)c(F)c5)cn(CC(C)C)c4n3)C(C)(C)C2)nc(C)c1C(=O)O` [Example 95, 6-(4-(3-(4-chloro-3-fluorophenyl)-1-isobutyl-1H-pyrrolo[2,3-b]pyridine-6-carbonyl)-3,3-dimethylpiperazin-1-yl)-2,4-dimethylnicotinic acid], the IC50 is less than 20 nM.
With `CC(C)Cc1nc(-c2ccc(Cl)cc2)n2ccc(C(=O)N3CCN(c4ccc(C(=O)O)cn4)CC3(C)C)cc12` [Example 219, 6-(4-(3-(4-chlorophenyl)-1-isobutylimidazo[1,5-a]pyridine-7-carbonyl)-3,3-dimethylpiperazin-1-yl)nicotinic acid] the figure was 20 to 10000 nM; with `Cc1cc(N2CCN(C(=O)c3cc(C)c4c(-c5ccc(Cl)c(F)c5)cn(CC(C)C)c4n3)CC2)nc(C)c1C(=O)O` [Example 189, 6-(4-(3-(4-chloro-3-fluorophenyl)-1-isobutyl-4-methyl-1H-pyrrolo[2,3-b]pyridine-6-carbonyl)piperazin-1-yl)-2,4-dimethylnicotinic acid], more than 10000 nM.
As for `CC1(C)C(=O)NCCN1C(=O)c1ccc2c(-c3ccc(Cl)c(F)c3)cn(Cc3ccncc3)c2n1` [Example 120, 4-(3-(4-chloro-3-fluorophenyl)-1-(pyridin-4-ylmethyl)-1H-pyrrolo[2,3-b]pyridine-6-carbonyl)-3,3-dimethylpiperazin-2-one], the IC50 was in the range of 20 to 10000 nM.
With `CN1CCN(C(=O)c2ccc3c(-c4ccc(Cl)c(F)c4)cn(C(C)(C)C)c3n2)C(C)(C)C1=O` [Example 2, 4-(1-(tert-butyl)-3-(4-chloro-3-fluorophenyl)-1H-pyrrolo[2,3-b]pyridine-6-carbonyl)-1,3,3-trimethylpiperazin-2-one] the figure was less than 20 nM; with `Cc1cc(N2CCN(C(=O)c3ccc4c(-c5ccc(Cl)c(F)c5)c(C)n(CC(C)C)c4n3)C(C)(C)C2)nc(C)c1C(=O)O` [Example 104, 6-(4-(3-(4-chloro-3-fluorophenyl)-1-isobutyl-2-methyl-1H-pyrrolo[2,3-b]pyridine-6-carbonyl)-3,3-dimethylpiperazin-1-yl)-2,4-dimethylnicotinic acid], less than 20 nM; with `Cc1cc(N2CCN(C(=O)c3ccc4c(-c5ccc(Cl)c(F)c5)c(C)n(C)c4n3)C(C)(C)C2)nc(C)c1C(=O)O` [Example 119, 6-(4-(3-(4-chloro-3-fluorophenyl)-1,2-dimethyl-1H-pyrrolo[2,3-b]pyridine-6-carbonyl)-3,3-dimethylpiperazin-1-yl)-2,4-dimethylnicotinic acid], 20 to 10000 nM.
With `CC(C)(C)n1cc(-c2ccc(Cl)c(F)c2)c2ccc(C(=O)N3CCC4(CC3)CNC(=O)C4)nc21` [Example 14, 8-(1-(tert-butyl)-3-(4-chloro-3-fluorophenyl)-1H-pyrrolo[2,3-b]pyridine-6-carbonyl)-2,8-diazaspiro[4.5]decan-3-one] the figure was 20 to 10000 nM; with `Cc1cc(N2CCN(C(=O)c3ccc4c(-c5ccc(Cl)c(F)c5)cn(Cc5cnccn5)c4n3)C(C)(C)C2)nc(C)c1C(=O)O` [Example 103, 6-(4-(3-(4-chloro-3-fluorophenyl)-1-(pyrazin-2-ylmethyl)-1H-pyrrolo[2,3-b]pyridine-6-carbonyl)-3,3-dimethylpiperazin-1-yl)-2,4-dimethylnicotinic acid], 20 to 10000 nM; with `CC(C)Cc1nn(-c2cccc(Cl)c2)c2ccc(C(=O)N3CCNC(=O)C3(C)C)nc12` [Example 67, 4-(1-(3-chlorophenyl)-3-isobutyl-1H-pyrazolo[4,3-b]pyridine-5-carbonyl)-3,3-dimethylpiperazin-2-one], 20 to 10000 nM.
With `COCCn1cc(-c2ccc(Cl)c(F)c2)c2ccc(C(=O)N3CCN(c4cc(C)c(C(=O)O)c(C)n4)CC3(C)C)nc21` [Example 134, 6-(4-(3-(4-chloro-3-fluorophenyl)-1-(2-methoxyethyl)-1H-pyrrolo[2,3-b]pyridine-6-carbonyl)-3,3-dimethylpiperazin-1-yl)-2,4-dimethyinicotinic acid] the figure was less than 20 nM; with `CC(C)(C)n1cc(-c2ccc(Cl)c(F)c2)c2ccc(C(=O)N3CCC4(CC3)NC(=O)NC4=O)nc21` [Example 24, 8-(1-(tert-butyl)-3-(4-chloro-3-fluorophenyl)-1H-pyrrolo[2,3-b]pyridine-6-carbonyl)-1,3,8-triazaspiro[4.5]decane-2,4-dione], 20 to 10000 nM; with `CC(C)(C)n1cc(-c2ccc(Cl)c(F)c2)c2ccc(C(=O)N3CCNC(=O)CC3)nc21` [Example 18, 1-(1-(tertbutyl)-3-(4-chloro-3-fluorophenyl)-1H-pyrrolo[2,3-b]pyridine-6-carbonyl)-1,4-diazepan-5-one], 20 to 10000 nM.
